{"source": "patent US20250381179A1", "about": "“CHROMAN-BASED COMPOUNDS FOR TREATING CANCER” (priority 2024, published 2025)", "key": {"MCF7 cells": {"test_system": "MCF7 cells", "test": "MCF7 cell growth inhibition (luminescence-based proliferation assay, CellTiter-Glo)", "procedure": "MCF7 cells were obtained from American Type Culture Collection (ATCC). For cell growth assay, MCF7 cells were seeded in 96-well plates at 2000 cells/well in 90 μL of DMEM medium containing 10% fetal bovine serum, and then incubated at 37° C. with 5% CO2 in air overnight. The following day, compound (1-g) and compound (1-h) were administered to the cells by using 1000× compound stock solution prepared in DMSO at concentrations of 3, 1, 0.33, 0.11, 0.037, 0.012, 0.0041, 0.0013, and 0.00046 mM. 1000x compound stock solution was first diluted in culturing medium to 10×, then 10 μL compound medium was added to each well in the cell plates. After administration of compound (1-g) and compound (1-h), the cells were then incubated at 37° C. for 6 days. Upon completion, the plates were equilibrated at room temperature for approximately 10 minutes. 100 μL of CellTiter-Glo® Reagent (Promega) was added to each well. The plates were then incubated at room temperature for 10 minutes and luminescence was recorded by EnSpire plate reader (PerkinElmer)."}, "[1]": {"test": "Phase 1 study: plasma pharmacokinetics in patients", "assay_type": "in vivo, human", "settings": "human, plasma, po; for AUC(0-t): read-out: AUC0-24 h of (1-h); for Tmax: read-out: Tmax* of (1-h); for Cmax: read-out: Cmax of (1-h)", "procedure": "All patients received compound (1-g) orally. The time of day for administration of compound (1-g) was consistent. Compound (1-g) was taken whole with liquid(s) and with food in the morning. The patient avoided taking other medications at the same time as compound (1-g). When possible, the patient took other medications in the evening or separated by a minimum of 4 hours following compound (1-g) dosing. On scheduled PK collection days (Cycle 1 Day 1, Cycle 1 Day 15, and Day 1 of Cycles 2, 3, 4, and 6) patients were instructed to wait until they arrive at the study center to take their study drug when told. If a patient missed a dose of compound (1-g), the patient was required to take the dose as soon as possible, but not less than 12 hours before the next dose is due. If vomiting occurred after taking the study treatment, the patient was instructed not to retake the dose and record the dose recorded as taken in the dosing diary, noting that the patient vomited and marking the time of vomiting. Patients were instructed to take the next scheduled dose of compound (1-g).\nThe plasma PK parameters (including AUC(0-∞), AUC(0-τ), Cmax, tmax, and T1/2) of compound (1-g) following oral administration was assessed by analysis of blood samples. During treatment, PK blood samples were taken at approximately the following time points: • Cycle 1 Day 1, and Day 15: pre-dose; at 1, 2, and 4-hour post-dose (±5 min); 6 and 8-hour post-dose (±10 min); and 24 hours post-dose (+1 hour); • Cycle 2, 3, 4, and 6 Day 1: pre-dose only.\nPlasma concentrations of compound (1-g) were used to calculate the PK parameters. These parameters were listed by individual patient and summarized by descriptive statistics (means, medians, ranges, standard deviations, and coefficients of variation as appropriate) by cohort.\nCompound (1-g) was administered orally to patients once a day at 100, 200, 300 mg, 400 mg, and 600 mg doses."}, "[2]": {"settings": "100 mg, patient plasma after oral (1-g) 100 mg QD, C1D15, n = 2, mean"}, "[3]": {"settings": "200 mg, patient plasma after oral (1-g) 200 mg QD, C1D1, n = 12, mean"}, "[4]": {"settings": "200 mg, patient plasma after oral (1-g) 200 mg QD, C1D15, n = 12, mean"}, "[5]": {"settings": "300 mg, patient plasma after oral (1-g) 300 mg QD, C1D1, n = 10, mean"}, "[6]": {"settings": "300 mg, patient plasma after oral (1-g) 300 mg QD, C1D15, n = 10, mean"}, "[7]": {"settings": "400 mg, patient plasma after oral (1-g) 400 mg QD, C1D1, n = 6, mean"}, "[8]": {"settings": "400 mg, patient plasma after oral (1-g) 400 mg QD, C1D15, n = 5, mean"}, "[9]": {"settings": "600 mg, patient plasma after oral (1-g) 600 mg QD, C1D1, n = 4, mean"}, "[10]": {"settings": "600 mg, patient plasma after oral (1-g) 600 mg QD, C1D15, n = 4, mean"}}, "note": "Where two headings read alike, the source gives them in different places."}
{"smiles": "O=C1CC[C@@H](N2Cc3cc(N4CCN(CC5CCN(c6ccc([C@@H]7c8ccc(O)cc8OC[C@@H]7c7ccccc7)cc6F)CC5)CC4)ccc3C2=O)C(=O)N1", "note": "[compound (1-h), (R)-3-(5-(4-((1-(2-fluoro-4-((3S,4R)-7-hydroxy-3-phenylchroman-4-yl)phenyl)piperidin-4-yl)methyl)piperazin-1-yl)-1-oxoisoindolin-2-yl)piperidine-2,6-dione]", "values": [{"measurement": "GI50", "setting": "MCF7 cells; Homo sapiens, 144 h, MCF7 cells, 6 days, CellTiter-Glo", "result": 9, "unit": "nM"}, {"measurement": "reduced the tumor growth by (FIG. 3A/3B)", "setting": "MCF7 cells; MCF7 cell proliferation assay", "result": "about 62%"}, {"measurement": "AUC(0-t)", "setting": "[1]; 100 mg, patient plasma after oral (1-g) 100 mg QD, C1D1, n = 1, mean", "result": 332, "unit": "ng·h/mL"}, {"measurement": "Tmax", "setting": "[1]; 100 mg, patient plasma after oral (1-g) 100 mg QD, C1D15, n = 2, *median value", "result": 12, "unit": "h"}, {"measurement": "AUC(0-t)", "setting": "[1]; [2]", "result": 7080, "unit": "ng·h/mL"}, {"measurement": "Cmax", "setting": "[1]; [2]", "result": 326, "unit": "ng/mL"}, {"measurement": "AUC(0-t)", "setting": "[1]; [3]", "result": 1030, "unit": "ng·h/mL"}, {"measurement": "Cmax", "setting": "[1]; [3]", "result": 68.8, "unit": "ng/mL"}, {"measurement": "Tmax", "setting": "[1]; 200 mg, patient plasma after oral (1-g) 200 mg QD, C1D15, n = 12, *median value", "result": 7.17, "unit": "h"}, {"measurement": "AUC(0-t)", "setting": "[1]; [4]", "result": 9540, "unit": "ng·h/mL"}, {"measurement": "Cmax", "setting": "[1]; [4]", "result": 428, "unit": "ng/mL"}, {"measurement": "AUC(0-t)", "setting": "[1]; [5]", "result": 1610, "unit": "ng·h/mL"}, {"measurement": "Cmax", "setting": "[1]; [5]", "result": 112, "unit": "ng/mL"}, {"measurement": "Tmax", "setting": "[1]; 300 mg, patient plasma after oral (1-g) 300 mg QD, C1D15, n = 10, *median value", "result": 5.8, "unit": "h"}, {"measurement": "AUC(0-t)", "setting": "[1]; [6]", "result": 15400, "unit": "ng·h/mL"}, {"measurement": "Cmax", "setting": "[1]; [6]", "result": 680, "unit": "ng/mL"}, {"measurement": "AUC(0-t)", "setting": "[1]; [7]", "result": 1740, "unit": "ng·h/mL"}, {"measurement": "Cmax", "setting": "[1]; [7]", "result": 118, "unit": "ng/mL"}, {"measurement": "Tmax", "setting": "[1]; 400 mg, patient plasma after oral (1-g) 400 mg QD, C1D15, n = 5, *median value", "result": 4.8, "unit": "h"}, {"measurement": "AUC(0-t)", "setting": "[1]; [8]", "result": 17900, "unit": "ng·h/mL"}, {"measurement": "Cmax", "setting": "[1]; [8]", "result": 820, "unit": "ng/mL"}, {"measurement": "AUC(0-t)", "setting": "[1]; [9]", "result": 2470, "unit": "ng·h/mL"}, {"measurement": "Cmax", "setting": "[1]; [9]", "result": 170, "unit": "ng/mL"}, {"measurement": "Tmax", "setting": "[1]; 600 mg, patient plasma after oral (1-g) 600 mg QD, C1D15, n = 4, *median value", "result": 10, "unit": "h"}, {"measurement": "AUC(0-t)", "setting": "[1]; [10]", "result": 18700, "unit": "ng·h/mL"}, {"measurement": "Cmax", "setting": "[1]; [10]", "result": 828, "unit": "ng/mL"}]}
